Reference: US20240376097A1, “BCL-2 Inhibitor” (BeiGene Ltd., priority 2020, published 2024)
pIC50: −log10 of the molar value. Where two headings read alike, the source gives them in different places.

Experiments:
[1] = test system: RS4;11 (BCL-2 dependent acute lymphoblastic leukemia cell line); assay: RS4;11 Cell Proliferation Assay; assay type: cell-based; settings: read-out: Cellular proliferation assay (IC50, nM) RS4
Description: Biological Example: RS4;11 Cell Proliferation Assay
(§1) The BCL-2 dependent acute lymphoblastic leukemia (ALL) cell line, RS4;11, was used to study the cellular potency of BCL-2 inhibitors. The cells (ATCC, CRL-1873) were cultured in RPMI-1640 complete medium (RPMI-1640 medium, HEPES (Gibco, 22400-105) supplemented with 10% fetal bovine serum (FBS) (Gibco, 10099-1441), 100 unit/ml penicillin and 100 μg/ml streptomycin (Gibco, 15140122)) and maintained in a humidified chamber at 37° C. containing 5% CO2. Each compound was serially diluted with 1 μM as the maximum concentration. To test the apoptotic effect of the compounds, the cells were seeded at 50,000 in 180 μl per well in 96-well plates and treated with 10-point dilution series of each compound for 48 hrs at 37° C. Cell viability was assessed after the treatment using CellTiter-GLO luminescent assay (Promega) according to the manufacturer's recommendations. Briefly, 30 μl of CellTiter-GLO reagent was added into 200 μl of cell culture. Mixture was agitated on an orbital shaker for 5 min to ensure cell lysis followed by 7 min incubation at room temperature to allow development and stabilization of luminescent signals, which corresponded to the quantity of ATP and thus the quantity of metabolically active cells. Luminescent signals were measured using PHERAstar FS reader (BMG). Mean IC50 values were determined with GraphPad Prism software.

[2] = test system: recombinant human Bcl-2-G101V protein; assay: Bcl-2-G101V TR-FRET Assay; assay type: binding; settings: ratio of biochemical IC50 Bcl-2 G101V / Bcl-2 WT
How it was run: (§2)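 Compounds were titrated at increasing concentrations against the Bcl-2-G101V–ligand interaction. TR-FRET signals were then read (ex 337 nm; em 490/520 nm). Percent inhibition was derived from the 490-to-520 nm ratio, and IC50 from a four-parameter logistic equation.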

[3] = target: recombinant human Bcl-2 D103Y protein (Homo sapiens (Human), UniProt P10415, D103Y); assay: Bcl-2-D103Y Biochemical Assay (TR-FRET); assay type: binding
Description: Biological Example: Bcl-2-D103Y Biochemical Assay
[…]. The TR-FRET signals (ex337 nm, em490 nm/520 nm) were read on BMG PHERAstar FSX instrument. The inhibition percentage of Bcl-2 D103Y interaction with its ligand in presence of increasing concentrations of compounds was calculated based on the ratio of fluorescence at 490 nm to that at 520 nm. The IC50 for each compound was derived from fitting the data to the four-parameter logistic equation by Dotmatics.

[4] = test system: BCL-2 G101V knock-in cell line H96 (derive from RS4;11); assay: Bcl 2-G101V Knock-In RS4;11 Cell Proliferation Assay; assay type: cell-based; settings: RS4;11 Bcl-2 G101V knock-in clone H96, 48 hrs, CellTiter-GLO, read-out: Cellular proliferation assay (IC50, nM) RS4
Description: Biological Example: Bcl 2-G101V Knock-In RS4;11 Cell Proliferation Assay
(1) RS4;11 H96 Bcl 2-G101V Knock-In Cell Line Generation
Briefly, RS4;11 BCL2-G101V knock-in cell pool was generated using Crisper/Cas9 gene editing system and the BCL2-G101V knock-in single clone H96 was picked from the knock-in cell pool and validated by WES (whole exome-sequencing) and RNA-seq.
The BCL-2 dependent acute lymphoblastic leukemia (ALL) cell line, RS4;11(ATCC, CRL-1873), was cultured in RPMI-1640 complete medium (RPMI-1640 medium, HEPES (Gibco, 22400-105) supplemented with 10% fetal bovine serum (FBS) (Gibco, 10099-1441), 100 unit/ml penicillin and 100 μg/ml streptomycin (Gibco, 15140122)) and maintained in a humidified chamber at 37° C. containing 5% CO2.
To obtain BCL2-G101V knock-in cell pool, RS4;11 was co-transfected with the Cas9-gRNA which also expressed GFP label, and the Donor gene which contained the BCL2-G101V mutant sequence. After 48 hrs of electroporation, the GFP positive cells were collected through FACSAriaIII cell sorting system. Cell pool was recovered for 3 days and then cultured under 2 nM ABT-199 stress for 4 weeks. […] Then cells were plated in 96 well U-plate with 1 cell/well for 10000 wells for single clone selection. After 3-5 weeks growing, clones were successively screened by PCR sequencing. And three BCL2-G101V knock-in clones: H96, H142 and H233, have been picked out.
Three clones were validated by genome DNA and cDNA(mRNA) PCR sequencing, and BCL-2, BCL-xL and MCL-1 expression using Western Blot. The H96 clone was also validated by WES (whole exome-sequencing) and RNA-seq.
(2) Bcl 2-G101V Knock-In RS4;11 Cell Proliferation Assay
as §1, with “G101V knock-in” for “dependent acute lymphoblastic leukemia (ALL)”, “line H96 (derive from RS4;11) were” for “line, RS4;11, was”, “cells” for “cells (ATCC, CRL-1873)”, “μM or 10 μM” for “μM”, “90” for “180”, “100” for “200”

[5] = target: recombinant human Bcl-2-G101V protein (Homo sapiens (Human), UniProt P10415, G101V); assay: Bcl-2-G101V TR-FRET Assay; assay type: binding; settings: Bcl-2 G101V mutant, TR-FRET; read-out: Biochemical assay (IC50, nM) Bcl-2 G101V
How it was run: as §2

[6] = target: Recombinant human Bcl-2 protein (Homo sapiens (Human), UniProt P10415); assay: Bcl-2 TR-FRET Assay; assay type: binding
How it was run: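 0.05 nM recombinant Bcl-2 preincubated 0.5 h at room temperature with 10-point compound dilutions (top final 1, 0.1, 0.02 or 0.01 uM) in pH 7.5 phosphate buffer. FITC-Bak peptide (0.5 nM) and anti-6His Tb cryptate then added for 1 h. TR-FRET read; IC50 from four-parameter logistic fit.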

[7] = Homo sapiens, RS4-11, RS4;11 cells
[8] = Bcl-2 wild type, TR-FRET, read-out: Biochemical assay (IC50, nM) Bcl-2 WT

IC50 [1, 7] [nM] | IC50 ([4]; Homo sapiens) [nM] | Compound | other results
– | – | 2-((1H-pyrrolo[2,3-b]pyridin-5-yl)oxy)-N-((4-((((1r,4r)-4-bydroxy-4-methylcyclohexyl)methyl)amino)-3-nitrophenyl)sulfonyl)-4-(2-((R or S)-2-(2-isopropylphenyl)-4-(2-methoxyethyl)piperazin-1-yl)-7-azaspiro[3.5]nonan-7-yl)benzamide [Example 13b] | IC50 ([1]; RS4;11 cells): 0.32 nM; Ratio of Bcl-2 G101V/WT [2]: 22.1; Ratio of Bcl-2 D103Y/Bcl-2 WT ([3]; ratio of IC50): 12; IC50 [4]: 2.81 nM
3 | 40.5 | CC(C)c1ccccc1C1CN(CC(C)(C)C)CCN1C1CC2(CCN(c3ccc(C(=O)NS(=O)(=O)c4ccc(NC[C@H]5CC[C@](C)(O)CC5)c([N+](=O)[O-])c4)c(Oc4cnc5[nH]ccc5c4)c3)CC2)C1 (stereo partly drawn) [Example 12, 2-((1H-pyrrolo[2,3-b]pyridin-5-yl)oxy)-N-((4-((((1r,4r)-4-hydroxy-4-methylcyclohexyl)methyl)amino)-3-nitrophenyl)sulfonyl)-4-(2-(2-(2-isopropylphenyl)-4-neopentylpiperazin-1-yl)-7-azaspiro[3.5]nonan-7-yl)benzamide] | –
0.7 | 5.67 | COCCN1CCN(C2CC3(CCN(c4ccc(C(=O)NS(=O)(=O)c5ccc(NC[C@H]6CC[C@](C)(O)CC6)c([N+](=O)[O-])c5)c(Oc5cnc6[nH]ccc6c5)c4)CC3)C2)C(c2ccccc2C(C)C)C1 (stereo partly drawn) [Example 13, 2-((1H-pyrrolo[2,3-b]pyridin-5-yl)oxy)-N-((4-((((1r,4r)-4-hydroxy-4-methylcyclohexyl)methyl)amino)-3-nitrophenyl)sulfonyl)-4-(2-(2-(2-isopropylphenyl)-4-(2-methoxyethyl)piperazin-1-yl)-7-azaspiro[3.5]nonan-7-yl)benzamide] | –
0.12 | 0.54 | COc1cc(CN2CCN(C3CC4(CCN(c5ccc(C(=O)NS(=O)(=O)c6ccc(NC[C@H]7CC[C@](C)(O)CC7)c([N+](=O)[O-])c6)c(Oc6cnc7[nH]cc(F)c7c6)c5)CC4)C3)[C@H](c3ccccc3C(C)C)C2)cc(C)c1OC [Example 210, 4-(2-((R)-4-(3,4-dimethoxy-5-methylbenzyl)-2-(2-isopropylphenyl)piperazin-1-yl)-7-azaspiro[3.5]nonan-7-yl)-2-((3-fluoro-1H-pyrrolo[2,3-b]pyridin-5-yl)oxy)-N-((4-((((1r,4r)-4-hydroxy-4-methylcyclohexyl)methyl)amino)-3-nitrophenyl)sulfonyl)benzamide] | –
0.15 | 0.71 | COc1cc(CN2CCN(C3CC4(CCN(c5ccc(C(=O)NS(=O)(=O)c6ccc(NC[C@H]7CC[C@](C)(O)CC7)c([N+](=O)[O-])c6)c(Oc6cnc7[nH]ccc7c6)c5)CC4)C3)[C@H](c3ccccc3C(C)C)C2)ccc1Cl [Example 276, 2-((1H-pyrrolo[2,3-b]pyridin-5-yl)oxy)-4-(2-((R)-4-(4-chloro-3-methoxybenzyl)-2-(2-isopropylphenyl)piperazin-1-yl)-7-azaspiro[3.5]nonan-7-yl)-N-((4-((((1r,4r)-4-hydroxy-4-methylcyclohexyl)methyl)amino)-3-nitrophenyl)sulfonyl)benzamide] | –
0.15 | 0.46 | COc1cc(CN2CCN(C3CC4(CCN(c5ccc(C(=O)NS(=O)(=O)c6ccc(NC[C@H]7CC[C@](C)(O)CC7)c([N+](=O)[O-])c6)c(Oc6cnc7[nH]cc(F)c7c6)c5)CC4)C3)[C@H](c3ccccc3C(C)C)C2)ccc1Cl [Example 278, 4-(2-((R)-4-(4-chloro-3-methoxybenzyl)-2-(2-isopropylphenyl)piperazin-1-yl)-7-azaspiro[3.5]nonan-7-yl)-2-((3-fluoro-1H-pyrrolo[2,3-b]pyridin-5-yl)oxy)-N-((4-((((1r,4r)-4-hydroxy-4-methylcyclohexyl)methyl)amino)-3-nitrophenyl)sulfonyl) benzamide] | –

Compound | IC50 [1, 7] [nM] | IC50 ([4]; Homo sapiens) [nM] | other results
CC(C)c1ccccc1C1CN(Cc2cnn(C)c2)CCN1C1CC2(CCN(c3ccc(C(=O)NS(=O)(=O)c4ccc(NC[C@H]5CC[C@](C)(O)CC5)c([N+](=O)[O-])c4)c(Oc4cnc5[nH]ccc5c4)c3)CC2)C1 (single isomer, unassigned) [Example 22a, 2-((1H-pyrrolo[2,3-b]pyridin-5-yl)oxy)-N-((4-((((1r,4r)-4-hydroxy-4-methylcyclohexyl)methyl)amino)-3-nitrophenyl)sulfonyl)-4-(2-((R or S)-2-(2-isopropylphenyl)-4-((1-methyl-1H-pyrazol-4-yl)methyl)piperazin-1-yl)-7-azaspiro [3.5]nonan-7-yl)benzamide] | 0.25 | 1.35 | IC50 [5]: 0.064 nM; IC50 [6, 8]: 0.0079 nM; IC50 ([6]; wild type Bcl-2, unit inferred, read-out: Bcl-2 WT): 0.0079 nM; pIC50 ([3]; TR-FRET, FITC labeled Bak peptide): 10.39
CC(C)c1ccccc1[C@@H]1CN(Cc2cccc3c2OCCO3)CCN1C1CC2(CCN(c3ccc(C(=O)NS(=O)(=O)c4ccc(NC[C@H]5CC[C@](C)(O)CC5)c([N+](=O)[O-])c4)c(Oc4cnc5[nH]ccc5c4)c3)CC2)C1 [Example 79b, 2-((1H-pyrrolo[2,3-b]pyridin-5-yl)oxy)-4-(2-(S-4-((2,3-dihydrobenzo [b][1,4]dioxin-5-yl)methyl)-2-(2-isopropylphenyl)piperazin-1-yl)-7-azaspiro[3.5]nonan-7-yl)-N-((4-((((1r,4r)-4-hydroxy-4-methylcyclohexyl)methyl)amino)-3-nitrophenyl)sulfonyl)benzamide] | 0.16 | 0.68 | IC50 [5]: 19 nM; IC50 [6, 8]: 0.33 nM
